# Test results: US20180243325A1, “METHOD FOR INHIBITING ABSORPTION OF AND/OR PROMOTING EXCRETION OF LIPIDS USING D-PSICOSE” (CJ CHEILJEDANG CORPORATION, priority 2015, published 2018)
# Key:
# Type in all cases: in vivo, C57BL/6J mice
# [1] = system: fatty acid synthase (FAS); assay: Hepatic lipid regulating enzyme activity: FAS; conditions: FIG. 4B, liver cytoplasmic fraction, HFD+5% w/w in diet, 16 weeks
# Protocol: (§1) First, 4-week-old male C57BL/6J mice (60 total) were purchased from Jackson Laboratory. The animals were acclimated to the vivarium in a thermo-hygrostat (20-23° C., 45-65%) under a 12 h light/dark cycle and fed a pelletized commercial non-purified diet for 1 week after arrival. The mice were then randomly divided into 6 groups (n=10) and fed the respective experimental diets for 16 weeks: normal diet group (ND, American Institute of Nutrition (AIN)-76 semi-synthetic diet), high-fat diet group (HFD, 20% fat+1% cholesterol based on AIN-76 diet), PSI group (HFD+5% D-psicose, w/w, Sigma Chemical Company), ERY group (HFD+5% erythritol, w/w, Sigma Chemical Company), GLU group (HFD+5% D-glucose, w/w, Sigma Chemical Company), and FRU group (HFD+5% D-fructose, w/w, Sigma Chemical Company). All high-fat diet-fed groups were allowed to ingest the same calories by pair feeding based on the PSI group. The mice had ad libitum access to distilled water during the experimental period. Their feed intakes and body weights were measured daily and biweekly, respectively. The organ weights and the adipose tissue weights of the mice were measured after sacrificing the animals. Samples were prepared and analyzed according to the method developed by Hulcher and Oleson. Specifically, the activity of fatty acid synthase (FAS) as a hepatic lipid regulating enzyme was measured by spectrophotometric assay according to the method described by Nepokroeff et al. Each sample was mixed with 100 μl of cytoplasmic fraction and the mixture was allowed to react at 30° C. for 2 min. A reduction in absorbance at 340 nm was measured. Fatty acid synthase (FAS) activity units were expressed as nanomoles (nmol) of NADPH oxidized for 1 min per mg of cytoplasmic fraction. Fatty acid β-oxidation activity was measured by monitoring the reduction of NAD^+ to NADH in the presence of palmitoyl-CoA, as described by Lazarow. β-oxidation activity units were expressed as nanomoles (nmol) of NADH produced for 1 min per mg of mitochondrial protein.
# [2] = system: Fatty acid β-oxidation; assay: Fatty acid β-oxidation activity in adipose tissue; conditions: FIG. 5A, epididymal white adipose tissue, HFD+5% w/w in diet, 16 weeks
# Protocol: as §1, with “a” for “a hepatic”, “enzyme of epididymal white adipose tissue” for “enzyme”, “FAS” for “Fatty acid synthase (FAS)”
# [3] = system: FAS (fatty acid synthase, 14101); assay: Hepatic mRNA expression, real-time quantitative PCR: FAS; conditions: FIG. 6, liver, HFD+5% w/w in diet, 16 weeks
# Protocol: (§2) First, 4-week-old male C57BL/6J mice (60 total) were purchased from Jackson Laboratory. The animals were acclimated to the vivarium in a thermo-hygrostat (20-23° C., 45-65%) under a 12 h light/dark cycle and fed a pelletized commercial non-purified diet for 1 week after arrival. The mice were then randomly divided into 6 groups (n=10) and fed the respective experimental diets for 16 weeks: normal diet group (ND, American Institute of Nutrition (AIN)-76 semi-synthetic diet), high-fat diet group (HFD, 20% fat+1% cholesterol based on AIN-76 diet), PSI group (HFD+5% D-psicose, w/w, Sigma Chemical Company), ERY group (HFD+5% erythritol, w/w, Sigma Chemical Company), GLU group (HFD+5% D-glucose, w/w, Sigma Chemical Company), and FRU group (HFD+5% D-fructose, w/w, Sigma Chemical Company). All high-fat diet-fed groups were allowed to ingest the same calories by pair feeding based on the PSI group. The mice had ad libitum access to distilled water during the experimental period. Their feed intakes and body weights were measured daily and biweekly, respectively. The organ weights and the adipose tissue weights of the mice were measured after sacrificing the animals.
# (§3) Samples were prepared and analyzed as previously described. Specifically, total RNA was synthesized into cDNA using a QuantiTect Reverse Transcription kit (QIAGEN Gmb1h, Hilden, Germany). RNA expression was quantified with real-time quantitative PCR using a QuantiTect SYBR Green PCR kit (QIAGEN Gmb1h, Hilden, Germany). Primers were designed to detect FAS (fatty acid synthase, 14101), ACC1 (Acetyl-CoA carboxylase 1, 107476), CPT1α (Carnitine palmitoyltransferase 1α, 12894), and CPT2 (Carnitine palmitoyltransferase 2, 12896). GAPDH was used as an internal transcription marker. The reaction was performed a total of 40 cycles (each consisting of 15 sec at 94° C., 30 sec at 58° C., 30 sec at 72° C., and 15 sec at 65° C.). Fluorescence signals were monitored every cycle and the resulting threshold cycles (Ct) were analyzed. mRNA expression in each experimental group was quantified using a CFX96 Real time system (Bio-rad, USA).
# [4] = system: CPT1α (Carnitine palmitoyltransferase 1α, 12894); assay: Hepatic mRNA expression, real-time quantitative PCR: CPT1α; conditions: FIG. 6, liver, HFD+5% w/w in diet, 16 weeks
# Protocol: as §2, §3
SMILES,hepatic FAS activity [1],fatty acid β-oxidation activity in adipose tissue [2],hepatic mRNA expression level of FAS [3],hepatic mRNA expression level of CPT1α [4]
"O=C(CO)[C@@H](O)[C@H](O)[C@H](O)CO [FRU, D-fructose]",increased significantly compared to those in the ND group,decreased significantly compared to those in the ND group,significantly lower than those in the ND group,significantly lower than those in the ND group
"O=C[C@H](O)[C@@H](O)[C@H](O)[C@H](O)CO [GLU, D-glucose]",increased significantly compared to those in the ND group,decreased significantly compared to those in the ND group,significantly lower than those in the ND group,significantly lower than those in the ND group
"OC[C@@H](O)[C@@H](O)CO [ERY, erythritol]",increased significantly compared to those in the ND group,decreased significantly compared to those in the ND group,significantly lower than those in the ND group,significantly lower than those in the ND group
"O=C(CO)[C@H](O)[C@H](O)[C@H](O)CO [PSI, D-psicose]",decreased significantly compared to those in other high-fat diet groups,increased significantly compared to those in other high-fat diet groups,much significantly lower than those in the ND group,much significantly lower than those in the ND group
